One data set has as its system KP4 cells. The data set is described as follows: Mitochondrial morphology by anti-TOMM20 immunofluorescence, KP4 cells. It counts as cell-based, human. The note with it: 24 h, 1b 15µM, metformin 5mM. As for the experimental part:
The action of biguanides in mitochondria can lead to morphological alterations that include disorganisation of the cristae. […].  Figure 4 Effects of biguanides on mitochondrial morphology. (A) Mitochondrial morphology in KP4 cells 24 h following the indicated treatments as visualised by anti-TOMM20 immunofluorescence. Scale bar = […]. […] The data represents the mean of 2 biological replicates and for each replicate three counts of 50 cells were done. n = 300 cells per treatment. Data was analyzed with one way ANOVA followed by Tukey HSD test.
Experimental. KP-4 cells were seeded at 50% confluency on slides in 6-well plates. […] After 24h of treatment, cells were washed twice with PBS1X then were fixed during 10 minutes at 4°C with 4% paraformaldehyde. Cells were washed again three times with PBS1X then permeabilized during 5 min in PBS1X, 2%BSA, 0,2%Triton X-100. Slides were washed three times 10 minutes with 1XPBS, 2%BSA, then incubated overnight with primary antibody anti-TOMM20 (Rabbit, 1:150, Santa Cruz, sc-11415) diluted in 1XPBS, 2%BSA. Slides were washed three times 10 minutes with 1XPBS, 2%BSA then incubated 1 hour at RT with anti-Rabbit-AlexaFluor568 secondary antibody (Goat, 1:1000, ThermoFisher Scientific). Cells were washed four times 10 minutes with 1XPBS then mounted with Vectashield mouting media containing DAPI (Vector laboratories H-1200). […]

For a further data set, the system named is AH375 cells. Nature of the data set: Tumor sphere formation, AH375 cells. It is filed as cell-based, mouse. The note with it: 24 h treatment.
The test system of data set [1] is NB508 mouse pancreatic ductal adenocarcinoma cells. Nature of the data set: In vitro growth inhibition screen at 5 µM, NB508 cells. It counts as cell-based. The following applies: 72 h at 37 °C. The text has this: Figure 1 (A) Structure and crystal packing of previously studied PEB-disubstituted (A.1) and monosubstituted (A.2 and A.3) benzimidazolium salts. Compound A.1 is an efficient chloride transporter forming channels and generating holes in bacterial membranes and red blood cellular membranes. Compound A.2 penetrates phospholipid membranes but is less efficient as ion transporter as it forms more compact aggregates; its toxicity on RBC is lower than compound A.1. The replacement of the phenyl group with a methyl group in compound A.3 results in the formation of even more compact aggregates with even lower toxicity on RBC. (B) Structure of PEB-substituted biguanidium salts. For each biguanide we prepared three series of biguanidium salts with different counterions. (C) Synthesis of 4-(phenylethynyl)benzylbiguanide 1 and 4-(phenylethyl)benzylbiguanide 2; (a) Phenylacetylene, PdCl2PPh3, CuI, PPh3, Et3N, THF, 70 °C, o.n. (b) NaCN(BH3)3, EtOHNH4OAc sat./NH3, 80 °C, o.n (c) Dicyandiamide, TMSCl, THFanh., 145 °C, 1 h (d) Pd/C 10%, H2, EtOH/AcOEt, 60 °C, 2 h. (D) Synthesis of 4-(phenylethynylphenyl)biguanidium 3 and 4-(phenylethylphenyl)biguanidium 4 (a) (1) Boc2O, THF, 2 h, (2) Phenylacetylene, PdCl2PPh3, CuI, PPH3, Et3N, THF, 70°, o.n. (b) TFA, DCM, 60 °C, 2 h (c) Dicyandiamide, TMSCl, THFanh, 145 °C, 1 h (d) Pd/C 10%, H2, EtOH/AcOEt, 60 °C, 2 h. The NMR spectra of the synthesized compounds are given in Supplementary Figs. S1–S24. (E) Relative growth of NB508 mouse pancreatic ductal adenocarcinoma cells and IMR90 fibroblasts exposed to 5 µM of PEB-biguanidium salts. Cells were incubated for 72 h at 37 °C. Errors bars represent the standard error of the mean (SEM), *p < 0.05, **p < 0.01, Student’s t test. (F) Crystal structure of 1b showing its self-assembly in the solid state. Crystal data is available in Supplementary Tables S1–S8 and crystal packing in Supplementary Fig. S25. TEXT PRINTED IN THE PICTURE: (A) A.1: HC50: 0.15 mM | (A) A.2: HC50: 1 mM | (A) A.3: HC50: 150 mM
NB508 is an aggressive pro-metastatic pancreatic cancer cell line that we used previously to study the role of mitochondria in pancreatic cancer. […].

Data set [2] can be described thus: U-tube experiment (partition across a bulk hydrophobic solvent). It counts as physicochemical. The note with it: 250 µM on cis side; for Crossing to the trans-aqueous side of the U-tube (in words): up to 72 h; for Trans-side concentration, mean / Trans-side concentration, single replicates: 25°C. As for the experimental part:
(§1) Figure 2 (A) Partition of compounds in an U-tube experiment. Concentration of biguanide on the trans-side of the U-tube at 48 h and 72 h at 25 °C, after addition of 250 µM of biguanide on the cis-side. (B) Variation in the internal pH of HPTS-containing EYPC liposomes. Intravesicular solution: 1 mM HPTS, 10 mM HEPES, and 100 mM NaCl, adjusted to pH = 7.4, and extravesicular solution: 10 mM HEPES and 100 mM NaCl, adjusted to pH = 7.4. Biguanidiums were injected after 50 s at 5 mM (50 mol% relative to the 10 mM EYPC concentration), a NaOH pulse was induced at 300 s, and the liposomes were lysed with Triton-X at 550 s. Each curve is the average of three independent measurements. (C) Fluorescence of safranin O in the EYPC liposomes. Biguanidium salts were injected at 5 mM (50 mol% relative to the 10 mM EYPC concentration) at 50 s. Each curve is the average of three independent measurements. […] Mitochondrial isolation was performed according to the previously reported protocol.
Experimental. U-tube experiment was prepared by adding 800 µL of dichloromethane in a U-shaped tube as a representation of the hydrophobic lipid membrane. On the receiving end (trans side) of the tube was added 300 µL of distilled water while the other side (cis side) was filled with 300 µL of a 250 µM solution of the compound of interest at 25°C. At 48h and 72h, 100 µL aliquot of the trans side was diluted in 900 µL methanol and monitored by LCMS (292 m/z). Area under curve (AUC) was measured and fitted on a calibration curve.

A short description of data set [3]: Safranin O assay, membrane potential of EYPC liposomes. The note with it: 5 mM (50 mol% relative to 10 mM EYPC). As for the experimental part: as §1
Data set [4] can be described thus: Octanol/water partition (logP) of compound 1b. The following applies: for logP at 24 h: octanol/water. It is filed as physicochemical. As for the experimental part: Experimental. A 10 µM or 20 µM solution of 1b was prepared in 5 ml of octanol and mixed with 5 ml distilled water at 25°C The solution was stirred and was left to settle for 24 hours before the absorbance of the octanol fraction was measured. The values obtained were fitted on a calibration curve prepared by measuring the absorbance of 1b in octanol at various concentrations (2.5, 10, 15, 20 and 30 µM). The logP was calculated using the following formula: […]
Where [1b]oct is the concentration of 1b in octanol and [1b]water is the concentration of 1b in water.

This is an account of results in paper PMC8110578, “Phenylethynylbenzyl-modified biguanides inhibit pancreatic cancer tumor growth” (Scientific Reports, 2021).

Each structure is given as a SMILES string. Values joined by “and” are separate entries in the source; they are usually repeats but may differ in a detail not shown here. Equal entries are not always repeated. Where two headings read alike, the source gives them in different places.

In the case of `CN(C)C(=N)NC(=N)N` [metformin, 1,1-dimethylbiguanide, reference compound], the “Effect on mitochondrial morphology” value in the data set on KP4 cells was “loss of the filamentous mitochondrial network”. Moreover, the “Decrease of the number of AH375 spheres” value in the data set on AH375 cells (1 mM) is reported as 50%. Moreover, in data set [1], the “Growth inhibition of NB508 cells” value was “no effect was observed”. Besides, the “Crossing to the trans-aqueous side of the U-tube (in words)” value in data set [2] is listed as “only traces”. Further, in data set [3], the “Membrane depolarization (Safranin-O fluorescence)” value is reported as “did not show this activity”.
In the case of `N=C(N)NC(=N)NCc1ccc(C#Cc2ccccc2)cc1` [1b, 4-(phenylethynyl)benzylbiguanide], in the data set on KP4 cells, the “Effect on mitochondrial morphology” value is listed as “punctuated pattern typical of fragmented mitochondria”. For the same molecule, in the data set on AH375 cells (5 µM), the “Decrease of the number of AH375 spheres” value worked out at 75%. For the same molecule, the “Growth inhibition of NB508 cells” value in data set [1] is given as “most important antiproliferative activities”. Besides, the “[1b] in octanol” value in data set [4] (Partition 1 (10 µM)) is recorded as 6.91 µM; in data set [4] (Partition 2 (20 µM)), 15.15 µM. Also, the “[1b] in water” value in data set [4] (Partition 1 (10 µM)) came to 3.09 µM; in data set [4] (Partition 2 (20 µM)), 4.85 µM. For the same molecule, the logP (as a rule, the decadic logarithm of the partition coefficient of the neutral form, usually between octanol and water) at 24 h in data set [4] (Partition 1 (10 µM), 25°C, 24 hours, read-out: logP) is 0.35; in data set [4] (Partition 2 (20 µM), 25°C, 24 hours, read-out: logP), 0.5; in data set [4] (logP (mean of partitions 1 and 2), 25°C, spread ± 0.10 in its own column) it was 0.42; in data set [4] (read-out: logP), 0.4. In addition, in data set [2], the “Crossing to the trans-aqueous side of the U-tube (in words)” value was “able to partition rapidly into the chloroform and cross to the trans-aqueous side”. For the same molecule, the “Trans-side concentration, mean” value in data set [2] (48h) is 64,7 µM; in data set [2] (72h) it was 92,3 µM. The “Trans-side concentration, single replicates” value was 90,1 µM and 57,1 µM and 46,8 µM in data set [2] (48h); 78,6 µM and 99,3 µM and 99,1 µM in data set [2] (72h). The “Membrane depolarization (Safranin-O fluorescence)” value in data set [3] is reported as “depolarization of the membrane”.
